Test results taken from patent US20170000126A1, “METHOD FOR INHIBITING CONIDIAL GERMINATION AND MYCELIAL GROWTH OF FUNGI SYMBIOTICALLY ASSOCIATED WITH BARK BEETLES” (Montana State University - Billings, priority 2015, published 2017).

How the values were obtained:
[1] = test system: Ceratocystiopsis brevicomi; assay: disk diffusion assay; assay type: cell-based; settings: C. brevicomi; 50-300 μg per disk
Protocol: (§1) The second assay is based on the standard “disk diffusion assay” routinely used in antimicrobial testing. Fungi are grown and harvested as for the microplate assay. After diluting 1:10, 150 μl of filtered conidia are spread evenly onto an Malt Extract Agar (MEA) plate. For each plate, 50 μg (0.12 μmole), 100 μg (0.25 μmole), 200 μg (0.50 μmole) and 300 μg (0.75 μmole) of the appropriate molecule (dissolved in DMSO) are spotted onto four separate Whatman Grade AA 6 mm filter disks. A control disk with 20 μl of DMSO only is also prepared. The DMSO is allowed to evaporate completely from each disk at room temperature and then the molecule-impregnated disks are positioned equidistant from each other on a plate. Plates are incubated at room temperature for 3 to 7 days, depending on the fungal species. At the end of the incubation period, the zone of inhibition (i.e., the region around each disk where no growth is visible) is measured from edge to edge of visible growth across and over the center of the disk. Images of the disk assays are obtained using an Epson Perfection V750 Pro desktop scanner.
(§2) Strains of G. clavigera, O. montium and C. brevicomi were obtained from Dr. Diana Six at the University of Montana and maintained on MEA plates (see below) at room temperarture.
(§3) Each small molecule was dissolved in dimethyl sulfoxide (DMSO) as a 10 mM stock and diluted directly into 100 μl of the appropriate YPD medium at 50 μM, 100 μM, 200 μM and 300 μM final concentration (for the microplate assay) or spotted onto Whatman 6 mm filter disks in 50 microgram (μg), 100 μg, 200 μg or 300 μg amounts (for the disk diffusion assay). The control condition (no small molecule) included DMSO to a concentration equivalent to that of the small molecule-containing wells or filter disks.
(§4) In order to identify additional inhibitors of morphogenesis, we employed a core structure search of the Chembridge chemical database and identified 72 compounds of related structure to BH3I-1 (the “core structure” used in the database searches was defined as the benzylidene group attached to a thiazolidine ring). The BH3I-1-related molecules were tested in the disk diffusion assay (200 μg per disk) for anti-fungal activity against all three species of bark beetle-associated fungi. […] These molecules were retested three separate times with 50, 100, 200 and 300 μg per disk (FIGS. 6, 7, 8, 9, 10).

[2] = test system: Ophiostoma montium; assay: disk diffusion assay; assay type: cell-based; settings: O. montium; 50-300 μg per disk
Protocol: as §1, §2, §3, §4

[3] = test system: Grosmannia clavigera; assay: disk diffusion assay; assay type: cell-based; settings: G. clavigera; 50-300 μg per disk
Protocol: as §1, §2, §3, §4

[4] = test system: Ceratocystiopsis brevicomi; assay: microplate assay (conidial germination and mycelial growth); assay type: cell-based; settings: C. brevicomi
Protocol: (§5) In the first assay, referred to as the “microplate assay”, fungi are first grown in liquid medium at 25° C. for 48 hours, and conidia are harvested by filtration through cheese cloth. The conidia are then transferred to the wells of an optical microplate containing (i) growth medium and (ii) varying concentrations of BH3I-1 (typically 0, 50, 100, 200 and 300 μM BH3I-1). The microplates are incubated for up to 120 hrs at 25° C. Germination and mycelial growth are monitored visually with a Nikon TE200 inverted microscope and spectrophotometrically in a Biotek Synergy H4 plate reader. For the spectrophotometric analysis, Optical Density 600 (OD600) readings are taken every six hours over the course of the experiment.
as §2
(§6) YPD medium (1% Yeast Extract, 2% Peptone and 2% Dextrose), a standard fungal growth medium, is used for these experiments. YPD plates included 1.5% agar.
as §3

[5] = test system: Ophiostoma montium; assay: as above; assay type: cell-based; settings: O. montium
Protocol: as §5, §2, §6, §3

[6] = test system: Grosmannia clavigera; assay: as above; assay type: cell-based; settings: G. clavigera
Protocol: as §5, §2, §6, §3

[7] = test system: C. albicans; settings: previous finding of the inventors (ref. 5); cited from earlier work

SMILES | anti-fungal activity (inhibition of conidial germination and mycelial growth) [1] | anti-fungal activity (inhibition of conidial germination and mycelial growth) [2] | anti-fungal activity (inhibition of conidial germination and mycelial growth) [3] | inhibition of conidial germination and mycelial growth [4] | inhibition of conidial germination and mycelial growth [5] | conidial cells failed to germinate ([6]; 100 μM) | mycelial growth of conidia that did germinate ([6]; 100 μM) | time for which growth inhibition was maintained ([6]; 25° C., YPD) [h] | inhibition of morphogenesis (yeast-to-filamentous growth transition) [7]
CCCC(C(=O)O)N1C(=O)C(=Cc2ccc(O)cc2)SC1=S (stereo not drawn) [BH3I-1-66, 2-[5-(4-hydroxybenzylidene)-4-oxo-2-thioxo-1,3-thiazolidin-3-yl]pentanoic acid] | inhibit the conidial germination and mycelial growth | inhibit the conidial germination and mycelial growth | inhibit the conidial germination and mycelial growth |  |  |  |  |  | 
CCCC(C(=O)O)N1C(=O)C(=Cc2ccccc2Cl)SC1=S (stereo not drawn) [BH3I-1-69, 2-[5-(2-chlorobenzylidene)-4-oxo-2-thioxo-1,3-thiazolidin-3-yl]pentanoic acid] | inhibit the conidial germination and mycelial growth | inhibit the conidial germination and mycelial growth | inhibit the conidial germination and mycelial growth |  |  |  |  |  | 
CC(C)c1ccc(C=C2SC(=S)N(CC(=O)O)C2=O)cc1 [BH3I-1-68, [5-(4-isopropylbenzylidene)-4-oxo-2-thioxo-1,3-thiazolidin-3-yl]acetic acid] | inhibit the conidial germination and mycelial growth | inhibit the conidial germination and mycelial growth | inhibit the conidial germination and mycelial growth |  |  |  |  |  | 
CC(C)C(C(=O)O)N1C(=O)C(=Cc2ccc(Cl)cc2)SC1=S (stereo not drawn) [BH3I-1-12, 2-[5-(4-chlorobenzylidene)-4-oxo-2-thioxo-1,3-thiazolidin-3-yl]-3-methylbutanoic acid] | inhibit the conidial germination and mycelial growth | inhibit the conidial germination and mycelial growth | inhibit the conidial germination and mycelial growth |  |  |  |  |  | 
CC(C)C(C(=O)O)N1C(=O)C(=Cc2ccc(Br)cc2)SC1=S (stereo not drawn) [BH3I-1, 5-(p-Bromobenzylidine)-α-isopropyl-4-oxo-2-thioxo-3-thiozolidineacetic acid] | inhibit the conidial germination and mycelial growth | inhibit the conidial germination and mycelial growth | inhibit the conidial germination and mycelial growth | inhibited conidial germination and mycelial growth | inhibited conidial germination and mycelial growth | approximately 80% | mycelia grew for a few hours and then stopped | 120 | inhibits
